Test results: patent publication US10898537B2, “Transdermal formulations for delivery of capsaicinoids” (DELIVRA INC., priority 2015, dated 2021)

Assay: PAMPA assay, flux of capsaicin and osthole from buffer solutions with penetration enhancers (Experiments 1 and 2)
Type: in vitro ADME
Description: A. Preparation of Standards:
1 mg/mL stock solutions of polygodial, tetrahydropiperine (Cosmoperine™), osthole, dimethylisosorbide (DMI), Tazmanian Mountain Pepper (TMP), capsaicin and warfarin were prepared in methanol and stored at −20 ° C.
Prisma buffer preparation: Added 1.25 mL of Prisma™ HT buffer to 48.75 mL distilled water. Adjusted to pH 7.0 by adding 0.5 M NaOH dropwise.
50 μg/mL solutions of capsaicin, warfarin and osthole were prepared by adding 50 μL of the 1 mg/mL solutions to 950 μL of MeOH:H2O (50:50).
Donor Well Solutions: Experiment 1—Polygodial, Osthole and Capsaicin with DMI and THP
Preparation of Capsaicin Solutions:
5 μg/mL solution of capsaicin was prepared in Prisma™ buffer solution by adding 5 μL of 1 mg/mL solution of capsaicin to 0.995 mL Prisma™ buffer.
5 μg/mL of capsaicin+5 μg/mL solution of DMI was prepared in Prisma™ buffer solution by adding 5 μL of 1 mg/mL of DMI and 5 μL of 1 mg/mL of capsaicin solution to 0.990 mL Prisma™ buffer.
5 μg/mL of capsaicin+5 μg/mL solution of THP was prepared in Prisma™ buffer solution by adding 5 μL of 1 mg/mL of THP and 5 μL of 1 mg/mL of capsaicin solution to 0.990 mL Prisma™ buffer.
Preparation of Osthole Solutions:
5 μg/mL solution of osthole was prepared in Prisma™ buffer solution by adding 5 μL of 1 mg/mL solution of osthole to 0.995 mL Prisma™ buffer.
5 μg/mL of osthole+5 μg/mL solution of DMI was prepared in Prisma™ buffer solution by adding 5 μL of 1 mg/mL of DMI and 5 μL of 1 mg/mL of osthole solution to 0.990 mL Prisma™ buffer.
5 μg/mL of osthole+5 μg/mL solution of THP was prepared in Prisma™ buffer solution by adding 5 μL of 1 mg/mL of THP and 5 μL of 1 mg/mL of osthole solution to 0.990 mL Prisma™ buffer.
Donor Well Solutions: Experiment 2—Osthole and Capsaicin with Polygodial, TMP and THP
5 μg/mL solution of capsaicin was prepared in Prisma™ buffer solution by adding 5 μL of 1 mg/mL solution of capsaicin to 0.995 mL Prisma™ buffer. (Solution A)
5 μg/mL of capsaicin+5 μg/mL solution of polygodial was prepared in Prisma™ buffer solution by adding 5 μL of 1 mg/mL of polygodial and 5 μL of 1 mg/mL of capsaicin solution to 0.990 mL Prisma™ buffer. (Solution B)
5 μg/mL of capsaicin+5 μg/mL solution of TMP was prepared in Prisma™ buffer solution by adding 5 μL of 1 mg/mL of TMP and 5 μL of 1 mg/mL of capsaicin solution to 0.990 mL Prisma™ buffer. (Solution C)
5 μg/mL of capsaicin+5 μg/mL TMP+5 μg/mL solution of tetrahydropiperine was prepared in Prisma™ buffer solution by adding 5 μL of 1 mg/mL of TMP and 5 μL of 1 mg/mL tetrahydropiperine and 5 μL of 1 mg/mL of capsaicin solution to 0.985 mL Prisma™ buffer. (Solution D)
5 μg/mL of capsaicin+5 μg/mL solution of tetrahydropiperine was prepared in Prisma™ buffer solution by adding 5 μL of 1 mg/mL of tetrahydropiperine and 5 μL of 1 mg/mL of capsaicin solution to 0.990 mL Prisma™ buffer. (Solution E)
5 μg/mL solution of osthole was prepared in Prisma™ buffer solution by adding 5 μL of 1 mg/mL solution of osthole to 0.995 mL Prisma™ buffer. (Solution F)
5 μg/mL of osthole+5 μg/mL solution of polygodial was prepared in Prisma™ buffer solution by adding 5 μL of 1 mg/mL of polygodial and 5 μL of 1 mg/mL of osthole solution to 0.990 mL Prisma™ buffer. (Solution G)
5 μg/mL of osthole+5 μg/mL solution of TMP was prepared in Prisma™ buffer solution by adding 5 μL of 1 mg/mL of TMP and 5 μL of 1 mg/mL of osthole solution to 0.990 mL Prisma™ buffer. (Solution H)
5 μg/mL of osthole+5 μg/mL TMP+5 μg/mL solution of tetrahydropiperine was prepared in Prisma™ buffer solution by adding 5 μL of 1 mg/mL of TMP and 5 μL of 1 mg/mL tetrahydropiperine and 5 μL of 1 mg/mL of osthole solution to 0.985 mL Prisma™ buffer. (Solution I)
5 μg/mL of osthole+5 μg/mL solution of tetrahydropiperine was prepared in Prisma™ buffer solution by adding 5 μL of 1 mg/mL of tetrahydropiperine and 5 μL of 1 mg/mL of osthole solution to 0.990 mL Prisma™ buffer. (Solution J) […]

COc1ccc2ccc(=O)oc2c1CC=C(C)C [osthole]
concentration quantified in the acceptor well (alone, donor 5 μg/mL, 2.0 hours): 4 ng/mL
concentration quantified in the acceptor well (alone, donor 5 μg/mL, 2.5 hours): 89 ng/mL
concentration quantified in the acceptor well (alone, donor 5 μg/mL, 5.0 hours): 445 ng/mL
concentration quantified in the acceptor well (with equimass DMI (5 μg/mL), 2.0 hours): 95 ng/mL
concentration quantified in the acceptor well (with equimass DMI (5 μg/mL), 2.5 hours): 232 ng/mL
concentration quantified in the acceptor well (with equimass DMI (5 μg/mL), 5.0 hours): 510 ng/mL
concentration quantified in the acceptor well (with equimass THP (5 μg/mL), 2.0 hours): 261 ng/mL
concentration quantified in the acceptor well (with equimass THP (5 μg/mL), 2.5 hours): 324 ng/mL
concentration quantified in the acceptor well (with equimass THP (5 μg/mL), 5.0 hours): 549 ng/mL

CO[C@H]1CO[C@H]2[C@@H]1OC[C@H]2OC [DMI, Dimethyl Isosorbide]
effect of penetration enhancer on capsaicin flux in the PAMPA system (Experiment 1, vs capsaicin alone over five hours): neither penetration enhancer demonstrated a statistically significant increase in capsaicin flux
effect of penetration enhancer on osthole flux in the PAMPA system (Experiment 1, vs osthole alone over five hours): No observable enhancement

CC1(C)CCC[C@]2(C)[C@@H](C=O)C(C=O)=CC[C@@H]12 [polygodial]
effect of natural penetration enhancer on capsaicin flux in the PAMPA system (PAMPA): appear to decreased the flux rate of capsaicin
